Experimental data reported in PMC10997755, “Discovery of a small-molecule inhibitor that traps Polθ on DNA and synergizes with PARP inhibitors” (Nature Communications, 2024).
Values joined by “and” are separate entries in the source; they are usually repeats but may differ in a detail not shown here. Equal entries are not always repeated.

How the values were obtained:
Assay in all cases: Clonogenic assay
Format in all cases: cell-based
MDA-MB-231 cells = conditions: for percent suvival: Fig. 2f
Outline: (§1)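 Cells seeded at low density (300–1000 per well, by plate size and genotype), medium changed every 2 days, colonies grown 10–12 days. Fixed in water:ethanol:acetic acid, stained with 0.5% crystal violet, then counted; IC50 from ≥3 independent experiments, mean ± SEM.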

[1] = system: PE01 ovarian cancer cells; conditions: clonogenic survival
Outline: as §1

CAPAN-1 cells = conditions: for percent suvival: Capan-1 cells
Outline: as §1

HCT116 BRCA2 -/- cells = conditions: for Average number of colonies counted / Normalized colonies (% normalized to control): per experiment
Outline: as §1

[2] = system: PALB2 complemented EUFA1341 cells; conditions: for Average (raw signal of wells) / Normalized (0 micro M = 100) / average - blank: per experiment
Outline: (§2)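 Colony formation by BRCA-deficient, PALB2-mutant and wild-type cells (300–1000 cells/well) and MEFs (300 cells/well) over 10–12 days, medium changed every 2 days. Colonies fixed, stained with 0.5% crystal violet and counted; IC50 from 3 or more independent experiments.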

EUFA1341 PALB2 mut cells = system: EUFA1341 PALB2 mut cells
Outline: as §2

HCT116 Parental cells = conditions: for Average number of colonies counted / Normalized colonies (% normalized to control): per experiment
Outline: as §2

CN(C(=O)Oc1c(N2CCN(CCO)C2=O)cc(C(F)(F)F)cc1C(F)(F)F)c1ccc(F)cc1 [RTx-161]
percent suvival (MDA-MB-231 cells; Rtx-161 5 microM + Talazoparib 12.5 nano M, experiment block 1 (c0-c7)): 68.1979% | percent suvival (MDA-MB-231 cells; Rtx-161 5 microM + Talazoparib 12.5 nano M, experiment block 2 (c8-c15)): 63.9241% | percent suvival (MDA-MB-231 cells; Rtx-161 5 microM + Talazoparib 12.5 nano M, experiment block 3 (c16-c23)): 59.2391% | percent suvival (MDA-MB-231 cells; Rtx-161 5 microM + Talazoparib 25 nano M, experiment block 1 (c0-c7)): 45.2297% | percent suvival (MDA-MB-231 cells; Rtx-161 5 microM + Talazoparib 25 nano M, experiment block 2 (c8-c15)): 50% | percent suvival (MDA-MB-231 cells; Rtx-161 5 microM + Talazoparib 25 nano M, experiment block 3 (c16-c23)): 34.2391% | percent suvival (MDA-MB-231 cells; Rtx-161 5 microM + Talazoparib 50 nano M, experiment block 1 (c0-c7)): 12.7208% | percent suvival (MDA-MB-231 cells; Rtx-161 5 microM + Talazoparib 50 nano M, experiment block 2 (c8-c15)): 18.9873% | percent suvival (MDA-MB-231 cells; Rtx-161 5 microM + Talazoparib 50 nano M, experiment block 3 (c16-c23)): 15.7609% | percent suvival (MDA-MB-231 cells; Rtx-161 5 microM, Talazoparib 0 nano M, experiment block 1 (c0-c7)): 93.6396% | percent suvival (MDA-MB-231 cells; Rtx-161 5 microM, Talazoparib 0 nano M, experiment block 2 (c8-c15)): 98.7342% | percent suvival (MDA-MB-231 cells; Rtx-161 5 microM, Talazoparib 0 nano M, experiment block 3 (c16-c23)): 88.587% | combination with Talazoparib (MDA-MB-231 cells; clonogenic survival, HR-proficient cells): modestly potentiated the effects of Talazoparib | combination with Olaparib [1]: strongly potentiated the effects of Olaparib | single agent activity [1]: little to no activity as a single agent | percent suvival (CAPAN-1 cells; RTX-161 2 micro M + ola 0.041 micro M, experiment block 1 (c0-c9)): 16.0976% | percent suvival (CAPAN-1 cells; RTX-161 2 micro M + ola 0.041 micro M, experiment block 2 (c10-c19)): 65.2438% | percent suvival (CAPAN-1 cells; RTX-161 2 micro M + ola 0.041 micro M, experiment block 3 (c20-c29)): 82.5985% | percent suvival (CAPAN-1 cells; RTX-161 2 micro M + ola 0.123 micro M, experiment block 1 (c0-c9)): 6.496% | percent suvival (CAPAN-1 cells; RTX-161 2 micro M + ola 0.123 micro M, experiment block 2 (c10-c19)): 35.6906% | percent suvival (CAPAN-1 cells; RTX-161 2 micro M + ola 0.123 micro M, experiment block 3 (c20-c29)): 71.0728% | percent suvival (CAPAN-1 cells; RTX-161 2 micro M + ola 0.37 micro M, experiment block 1 (c0-c9)): 4.656% | percent suvival (CAPAN-1 cells; RTX-161 2 micro M + ola 0.37 micro M, experiment block 2 (c10-c19)): 25.2846% | percent suvival (CAPAN-1 cells; RTX-161 2 micro M + ola 0.37 micro M, experiment block 3 (c20-c29)): 54.8012% | percent suvival (CAPAN-1 cells; RTX-161 2 micro M + ola 1.11 micro M, experiment block 1 (c0-c9)): 3.463% | percent suvival (CAPAN-1 cells; RTX-161 2 micro M + ola 1.11 micro M, experiment block 2 (c10-c19)): 19.041% | percent suvival (CAPAN-1 cells; RTX-161 2 micro M + ola 1.11 micro M, experiment block 3 (c20-c29)): 23.1621% | percent suvival (CAPAN-1 cells; RTX-161 2 micro M, ola 0.00 micro M, experiment block 1 (c0-c9)): 102.855% | percent suvival (CAPAN-1 cells; RTX-161 2 micro M, ola 0.00 micro M, experiment block 2 (c10-c19)): 79.1879% | percent suvival (CAPAN-1 cells; RTX-161 2 micro M, ola 0.00 micro M, experiment block 3 (c20-c29)): 91.4122% | percent suvival (CAPAN-1 cells; RTX-161 6 micro M + ola 0.041 micro M, experiment block 1 (c0-c9)): 15.5586% | percent suvival (CAPAN-1 cells; RTX-161 6 micro M + ola 0.041 micro M, experiment block 2 (c10-c19)): 45.4723% | percent suvival (CAPAN-1 cells; RTX-161 6 micro M + ola 0.041 micro M, experiment block 3 (c20-c29)): 68.5869% | percent suvival (CAPAN-1 cells; RTX-161 6 micro M + ola 0.123 micro M, experiment block 1 (c0-c9)): 6.432% | percent suvival (CAPAN-1 cells; RTX-161 6 micro M + ola 0.123 micro M, experiment block 2 (c10-c19)): 32.777% | percent suvival (CAPAN-1 cells; RTX-161 6 micro M + ola 0.123 micro M, experiment block 3 (c20-c29)): 59.0951% | percent suvival (CAPAN-1 cells; RTX-161 6 micro M + ola 0.37 micro M, experiment block 1 (c0-c9)): 6.745% | percent suvival (CAPAN-1 cells; RTX-161 6 micro M + ola 0.37 micro M, experiment block 2 (c10-c19)): 21.1222% | percent suvival (CAPAN-1 cells; RTX-161 6 micro M + ola 0.37 micro M, experiment block 3 (c20-c29)): 41.2416% | percent suvival (CAPAN-1 cells; RTX-161 6 micro M + ola 1.11 micro M, experiment block 1 (c0-c9)): 6.364% | percent suvival (CAPAN-1 cells; RTX-161 6 micro M + ola 1.11 micro M, experiment block 2 (c10-c19)): 17.1679% | percent suvival (CAPAN-1 cells; RTX-161 6 micro M + ola 1.11 micro M, experiment block 3 (c20-c29)): 14.1224% | percent suvival (CAPAN-1 cells; RTX-161 6 micro M, ola 0.00 micro M, experiment block 1 (c0-c9)): 109.215% | percent suvival (CAPAN-1 cells; RTX-161 6 micro M, ola 0.00 micro M, experiment block 2 (c10-c19)): 55.8784% | percent suvival (CAPAN-1 cells; RTX-161 6 micro M, ola 0.00 micro M, experiment block 3 (c20-c29)): 75.1407% | percent suvival (CAPAN-1 cells; RTX-161 18 micro M + ola 0.041 micro M, experiment block 1 (c0-c9)): 10.9588% | percent suvival (CAPAN-1 cells; RTX-161 18 micro M + ola 0.123 micro M, experiment block 1 (c0-c9)): 6.3155% | percent suvival (CAPAN-1 cells; RTX-161 18 micro M + ola 0.37 micro M, experiment block 1 (c0-c9)): 7.064% | percent suvival (CAPAN-1 cells; RTX-161 18 micro M + ola 1.11 micro M, experiment block 1 (c0-c9)): 6.846% | percent suvival (CAPAN-1 cells; RTX-161 18 micro M, ola 0.00 micro M, experiment block 1 (c0-c9)): 83.7737% | combination with Olaparib (CAPAN-1 cells; clonogenic survival): significantly reduced cellular resistance to Olaparib | IC50 (HCT116 BRCA2 -/- cells; Homo sapiens, HCT-116, HCT116 cells, label beside BRCA2-null curve, read-out: IC50 clonogenic survival): ~1000 nM | Normalized colonies, pooled Average of 3 experiments (HCT116 BRCA2 -/- cells; RTX-161 0.5 micro M): 92.0788% | Average number of colonies counted (HCT116 BRCA2 -/- cells; RTX-161 0.5 micro M): 70 and 37.3333 and 38 | Normalized colonies (% normalized to control) (HCT116 BRCA2 -/- cells; RTX-161 0.5 micro M): 74.7331% and 113.131% and 88.3721% | Normalized colonies, pooled Average of 3 experiments (HCT116 BRCA2 -/- cells; RTX-161 1 micro M): 62.4064% | Average number of colonies counted (HCT116 BRCA2 -/- cells; RTX-161 1 micro M): 46.6667 and 26.6667 and 24.3333 | Normalized colonies (% normalized to control) (HCT116 BRCA2 -/- cells; RTX-161 1 micro M): 49.8221% and 80.8081% and 56.5891% | Normalized colonies, pooled Average of 3 experiments (HCT116 BRCA2 -/- cells; RTX-161 2 micro M): 32.1189% | Normalized colonies (% normalized to control) (HCT116 BRCA2 -/- cells; RTX-161 2 micro M): 33.0961% and 35.3535% and 27.907% | Normalized colonies, pooled Average of 3 experiments (HCT116 BRCA2 -/- cells; RTX-161 4 micro M): 16.8132% | Normalized colonies, pooled Average of 3 experiments (HCT116 BRCA2 -/- cells; RTX-161 8 micro M): 8.53% | combination with Rucaparib (HCT116 BRCA2 -/- cells; clonogenic survival): strong synergistic activity | combination with Olaparib (HCT116 BRCA2 -/- cells; clonogenic survival, Combenefit synergy): strong synergistic activity | selective killing of BRCA2-null HCT116 cells (HCT116 BRCA2 -/- cells; colony survival, versus BRCA2-WT): selective killing | activity against PALB2 complemented EUFA1341 cells [2]: little to no activity | Average (raw signal of wells) ([2]; RTX-161 2.5 micro M): 1.026 and 0.9713 and 0.6573 | Normalized (0 micro M = 100) ([2]; RTX-161 2.5 micro M): 116.435% and 111.613% and 105.551% | average - blank ([2]; RTX-161 2.5 micro M): 0.8256 and 0.7713 and 0.5073 | Average (raw signal of wells) ([2]; RTX-161 5 micro M): 1.035 and 0.9992 | Normalized (0 micro M = 100) ([2]; RTX-161 5 micro M): 117.788% and 115.651% and 105.551% | average - blank ([2]; RTX-161 5 micro M): 0.8352 and 0.7992 and 0.5073 | Average (raw signal of wells) ([2]; RTX-161 10 micro M): 0.6121 and 1.137 and 1.058 | Normalized (0 micro M = 100) ([2]; RTX-161 10 micro M): 96.1382% and 132.128% and 124.139% | survival of PALB2-mutant EUFA1341 cells (EUFA1341 PALB2 mut cells): significant reduction in the survival | IC50 (EUFA1341 PALB2 mut cells; EUFA1341 cells, label beside PALB2-mut curve, read-out: IC50 clonogenic survival): ~5 µM | Normalized (0 micro M = 100) (EUFA1341 PALB2 mut cells; RTX-161 2.5 micro M, per experiment): 67.9566% and 76.5823% and 64.8427% | Normalized (0 micro M = 100) (EUFA1341 PALB2 mut cells; RTX-161 5 micro M, per experiment): 50.4887% and 55.1827% and 45.6779% | Average (raw signal of wells) (EUFA1341 PALB2 mut cells; RTX-161 10 micro M, per experiment): 0.37 and 0.6469 and 0.6018 | effect in BRCA2-WT cells (HCT116 Parental cells; HCT116, colony survival): little to no effect | Normalized colonies, pooled Average of 3 experiments (HCT116 Parental cells; RTX-161 0.5 micro M): 101.74% | Average number of colonies counted (HCT116 Parental cells; RTX-161 0.5 micro M): 118 and 67.6667 and 68.6667 | Normalized colonies (% normalized to control) (HCT116 Parental cells; RTX-161 0.5 micro M): 99.7183% and 107.407% and 98.0952% | Normalized colonies, pooled Average of 3 experiments (HCT116 Parental cells; RTX-161 1 micro M): 98.8027% | Average number of colonies counted (HCT116 Parental cells; RTX-161 1 micro M): 114.333 and 64.6667 and 68 | Normalized colonies (% normalized to control) (HCT116 Parental cells; RTX-161 1 micro M): 96.6197% and 102.646% and 97.1429% | Normalized colonies, pooled Average of 3 experiments (HCT116 Parental cells; RTX-161 2 micro M): 97.4337% | Average number of colonies counted (HCT116 Parental cells; RTX-161 2 micro M): 112.667 and 59.6667 and 71.6667 | Normalized colonies (% normalized to control) (HCT116 Parental cells; RTX-161 2 micro M): 95.2113% and 94.709% and 102.381% | Normalized colonies, pooled Average of 3 experiments (HCT116 Parental cells; RTX-161 4 micro M): 97.4186% | Average number of colonies counted (HCT116 Parental cells; RTX-161 4 micro M): 107.667 and 62 and 72 | Normalized colonies (% normalized to control) (HCT116 Parental cells; RTX-161 4 micro M): 90.9859% and 98.4127% and 102.857% | Normalized colonies, pooled Average of 3 experiments (HCT116 Parental cells; RTX-161 8 micro M): 96.7852% | Average number of colonies counted (HCT116 Parental cells; RTX-161 8 micro M): 104.667 and 63 and 71.3333 | Normalized colonies (% normalized to control) (HCT116 Parental cells; RTX-161 8 micro M): 88.4507% and 100% and 101.905%
